In this assay the target is PAR4 (Homo sapiens (Human), UniProt Q96RI0). As to the kind of experiment: FLIPR assay in PAR4-expressing HEK293 cells (PAR4 antagonist activity, calcium mobilization). Format: cell-based. The settings on record: FLIPR assay as described in Example A. A digest of the protocol:
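Calcium-flux antagonist readout: compounds preincubated 30 min at room temperature with PAR4-transfected HEK293 cells in HBSS with 10 mM HEPES (0.67% DMSO final), then agonist peptide added. Agonist activity checked on compound addition; cells carry endogenous PAR1.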

pIC50: −log10 of the molar value.

PAR4, sequence (Q96RI0 18-385): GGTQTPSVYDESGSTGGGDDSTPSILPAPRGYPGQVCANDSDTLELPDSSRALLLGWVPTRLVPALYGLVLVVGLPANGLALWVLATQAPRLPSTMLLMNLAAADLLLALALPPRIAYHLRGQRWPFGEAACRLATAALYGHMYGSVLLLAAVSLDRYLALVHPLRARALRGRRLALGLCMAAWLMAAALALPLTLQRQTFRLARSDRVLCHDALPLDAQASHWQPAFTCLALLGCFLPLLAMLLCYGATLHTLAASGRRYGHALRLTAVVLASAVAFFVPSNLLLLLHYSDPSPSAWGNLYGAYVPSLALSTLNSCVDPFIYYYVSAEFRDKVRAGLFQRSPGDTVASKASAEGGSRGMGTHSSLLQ

Consider `COc1cc(OCc2cccc(OCc3ccccc3C(F)(F)F)c2)c2cc(-c3cn4nc(OC)sc4n3)oc2c1` [Example 326], for which the pIC50 was 8.47. For `CCc1nn2cc(-c3nc4ccc(OCC5CCCCC5)cc4o3)nc2s1` [Example 76] the value was 5.47. For `CCOc1ccc2nc(-c3cn4nc(SC)sc4n3)oc2c1` [Example 160], the pIC50 is 7.40. Then `COc1nn2cc(-c3cc4c(OCc5cccc(OCc6ccccc6)c5)cc(O)cc4o3)nc2s1` [Example 410, 4-((3-(Benzyloxy)benzyl)oxy)-2-(2-methoxyimidazo[2,1-b][1,3,4]thiadiazol-6-yl)benzofuran-6-ol], with 8.11.

As for `CSc1nn2cc(-c3cc4c(Cl)cc(Cl)cc4o3)nc2s1` [Example 287], the pIC50 was 8.09. Then `COc1ccc(COc2cccc3oc(-c4cn5nc(SC)sc5n4)nc23)cc1` [Example 172], with 6.09; and `CSc1nn2cc(-c3nc4c(OC[C@@H]5CCCN5C(=O)OC(C)(C)C)cccc4o3)nc2s1` [Example 332, (S)-tert-Butyl 2-(((2-(2-(methylthio)imidazo[2,1-b][1,3,4]thiadiazol-6-yl)benzo[d]oxazol-4-yl)oxy)methyl)pyrrolidine-1-carboxylate], with 6.60. `Cc1cc(C)c2cc(-c3cn4nc(Br)sc4n3)oc2c1` [Example 296]: the negative logarithm of the IC50 (pIC50) was 6.97. Then `COc1ccc2cc(-c3cn4nc(Br)sc4n3)oc2c1` [Example 260], with 8.35; and `COc1cc(Cl)cc(COc2cccc(COc3cc(OC)cc4oc(-c5cn6nc(OC)sc6n5)cc34)c2)c1` [Example 401], with 8.89; and `COc1nn2cc(-c3nc4cc(C(C)(C)C)ccc4o3)nc2s1` [Example 134], with 6.49. For `COc1cc(OCc2cccc(OCc3ccccc3OC)c2)c2cc(-c3cn4nc(OC)sc4n3)oc2c1` [Example 309] the value was 8.91; for `COc1cc2oc(-c3cn4nc(Br)sc4n3)cc2cc1Br` [Example 275], 7.64. For `COc1nn2cc(-c3nc4cccc(F)c4o3)nc2s1` [Example 144], the pIC50 is 7.04. With `COc1cc(OC)c2nc(-c3cn4nc(SC)sc4n3)sc2c1` [Example 189], the pIC50 is 5.66. Then `CSc1nn2cc(-c3nc4cc(F)ccc4s3)nc2s1` [Example 182, 5-Fluoro-2-(2-(methylthio)imidazo[2,1-b][1,3,4]thiadiazol-6-yl)benzo[d]thiazole], with 7.71; and `COc1ccc2oc(-c3cn4nc(OC)sc4n3)cc2c1` [Example 93], with 6.65. Then `CCOC(=O)CCCOc1cccc2cc(-c3cn4nc(CC)sc4n3)oc12` [Example 60], with 6.21.

`COc1nn2cc(-c3nc4ccccc4o3)nc2s1` [Example 111, 2-(2-Methoxyimidazo[2,1-b][1,3,4]thiadiazol-6-yl)benzo[d]oxazole]: the pIC50 was 6.85.

As to `CSc1nn2cc(-c3cc4c(F)cccc4o3)nc2s1` [Example 262], the pIC50 was 8.37. For `CCc1nn2cc(-c3cc4cccc(OCC#N)c4o3)nc2s1` [Example 53] the value was 6.83. Then `COc1nn2cc(-c3cc4cccc(C(C)C)c4o3)nc2s1` [Example 101], with 7.97; and `C[C@H](F)c1nn2cc(-c3cc4c(Cl)cc(Cl)cc4o3)nc2s1` [Example 213B, (S)-6-(4,6-Dichlorobenzofuran-2-yl)-2-(1-fluoroethyl)imidazo[2,1-b][1,3,4]thiadiazole], with 7.99; and `CSc1nn2cc(-c3nc4ccc(OCc5ccncc5)cc4o3)nc2s1` [Example 146], with 6.04. `CSc1nn2cc(-c3nc4ccc(OCc5cccnc5)cc4o3)nc2s1` [Example 145]: the pIC50 was 6.54.

`CSc1nn2cc(-c3nc4c(N)cccc4o3)nc2s1` [Example 120, 2-(2-(Methylthio)imidazo[2,1-b][1,3,4]thiadiazol-6-yl)benzo[d]oxazol-4-amine]: the pIC50 is 7.31.

As to `COc1ccc2oc(-c3cn4nc(OC)sc4n3)nc2c1` [Example 142], the pIC50 was 7.56. Then `Brc1nn2cc(-c3cc4c(OCc5ccccc5)cc(OCc5ccccc5)cc4o3)nc2s1` [Example 254], with 6.22; and `CCc1nn2cc(-c3cc4cccc(O)c4o3)nc2s1` [Example 59], with 6.54. Regarding `CSc1nn2cc(-c3nc4ccc(C)cc4s3)nc2s1` [Example 190], the pIC50 is 6.69. Turning to `COc1nn2cc(-c3cc4c(OCc5ccccc5)cc(OC)c(Br)c4o3)nc2s1` [Example 226, 6-(4-(Benzyloxy)-7-bromo-6-methoxybenzofuran-2-yl)-2-methoxyimidazo[2,1-b][1,3,4]thiadiazole], the negative logarithm of the IC50 (pIC50) is 6.23.

In the case of `COc1nn2cc(-c3nc4cc(C)ccc4o3)nc2s1` [Example 127], the pIC50 is 7.55. Take `COc1cc(OCc2cccc(OCc3cc(C)cc(C)c3)c2)c2cc(-c3cn4nc(OC)sc4n3)oc2c1` [Example 382]: the pIC50 was 8.78.

With `CSc1nn2cc(-c3nc4c(C)cccc4o3)nc2s1` [Example 128], the negative-log IC50 (pIC50) was 7.77. `CCc1cccc2cc(-c3cn4nc(OC)sc4n3)oc12` [Example 92]: the negative logarithm of the IC50 (pIC50) was 7.89. In the case of `COc1nn2cc(-c3cc4c(OCc5cccc(OCc6ccccc6)c5)cc(Cl)cc4o3)nc2s1` [Example 414, 6-(4-((3-(Benzyloxy)benzyl)oxy)-6-chlorobenzofuran-2-yl)-2-methoxyimidazo[2,1-b][1,3,4]thiadiazole], the pIC50 is 8.29. For `COc1cc(OCc2cccc(OCc3ccc(F)cc3Cl)c2)c2cc(-c3cn4nc(OC)sc4n3)oc2c1` [Example 369] the value was 8.53. Take `COc1cc(OCc2cccc(OCc3ccccc3Br)c2)c2cc(-c3cn4nc(OC)sc4n3)oc2c1` [Example 360]: the pIC50 was 8.61. Then `COc1ccc2c(C)c(-c3cn4nc(SC)sc4n3)oc2c1OC` [Example 25], with 8.55; and `CSc1nn2cc(-c3cc4c(OCC#N)cccc4o3)nc2s1` [Example 248], with 6.84; and `COc1nn2cc(-c3nc4ccc(C)cc4s3)nc2s1` [Example 197], with 5.98. As for `CSc1nn2cc(-c3cc4c(OCc5cccc(OCc6ccccc6)c5)cc(OC=O)cc4o3)nc2s1` [Example 425], the pIC50 is 7.91.

As to `COc1cc(OCc2ccccc2)c2cc(-c3cn4nc(C(C)(F)F)sc4n3)oc2c1` [Example 265], the pIC50 was 7.55. Turning to `CSc1nn2cc(-c3nc4c(OCc5ccccn5)cccc4o3)nc2s1` [Example 166], the negative logarithm of the IC50 (pIC50) is 6.86. Turning to `COc1cc(Br)cc2cc(-c3cn4nc(Br)sc4n3)oc12` [Example 286], the pIC50 is 6.56. Then `CSc1nn2cc(-c3cc4c(OCc5cccc(OCc6ccccc6)c5)cc(O)cc4o3)nc2s1` [Example 421], with 7.61; and `CSc1nn2cc(-c3nc4c(OCC5CC5)cccc4o3)nc2s1` [Example 175], with 7.38.

On to `CSc1nn2cc(-c3nc4ccc(OCc5ccccc5Cl)cc4o3)nc2s1` [Example 151], for which the negative logarithm of the IC50 (pIC50) is 6.17. Consider `COc1nn2cc(-c3nc4c(Cl)cccc4s3)nc2s1` [Example 196], for which the negative logarithm of the IC50 (pIC50) was 6.10. For `CSc1nn2cc(-c3cc4ccccc4o3)nc2s1` [Example 1, 6-(Benzofuran-2-yl)-2-(methylthio)imidazo[2,1-b][1,3,4]thiadiazole] the value was 7.85.

What is called pIC50 is −log10 of the IC50, conventionally taken in molar units.

Source of the values: patent US9862730B2, “Imidazothiadiazole derivatives as protease activated receptor 4 (PAR4) inhibitors for treating platelet aggregation” (BRISTOL-MYERS SQUIBB COMPANY, priority 2012, dated 2018).
